Measured values reported in PubChem BioAssay (NCI).
“And” between values parts separate entries of the source, which are not always exact repeats. Identical values can stand only once.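 A five-concentration, 48-hour dose response in 96-well plates underlies each endpoint, interpolated linearly between surrounding concentrations. GI50 is the concentration that inhibits growth by half. Definition used: TGI = concentration required for complete inhibition of growth.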

Key:
Assay in all cases: inhibition of tumour cell growth, NCI panel, 48 h
BT-549 breast = system: BT-549 breast
PC-3 prostate = system: PC-3 prostate
DLD-1 colon = system: DLD-1 colon
KM20L2 colon = system: KM20L2 colon
XF 498 CNS = system: XF 498 CNS
DMS 273 small cell lung = system: DMS 273 small cell lung
SNB-78 CNS = system: SNB-78 CNS
MDA-N = system: MDA-N

SMILES | GI50 (BT-549 breast) | TGI (BT-549 breast) | GI50 (PC-3 prostate) | TGI (PC-3 prostate) | other results
COc1ccc(C(=O)c2nc3ccccc3n2CC(=O)c2ccc(Cl)cc2)cc1 | 4.11 µM | > 100 µM | 3.09 µM | > 100 µM | 
CC(C)[O-].CC(C)[O-].O=c1cccccc1[O-].O=c1cccccc1[O-].[Ti+4] |  |  |  |  | GI50 (DLD-1 colon): 42 µM; TGI (DLD-1 colon): > 100 µM; GI50 (KM20L2 colon): 46.1 µM; TGI (KM20L2 colon): > 100 µM; GI50 (XF 498 CNS): 33.8 µM; TGI (XF 498 CNS): 97.3 µM
Cc1ccc2oc(=O)c(-c3ccccc3)nc2c1 |  |  |  |  | TGI (DLD-1 colon): > 100 µM; TGI (DMS 273 small cell lung): 37.6 µM; TGI (XF 498 CNS): > 100 µM
O=C(/C=C/c1cccc(O)c1)c1cccc(-n2cc(-c3ccc4ccccc4c3)[nH]c2=O)c1 | 1.89 µM | 5.14 µM | 1.85 µM | 7.9 µM | 
CSc1ccc(N(C)c2nc(C)nc3c2CCC3)cc1 | < 0.01 µM | < 0.01 µM | < 0.01 µM | 51.6 µM | 
CCOC(=O)N1CCN(CCCCCOc2ccccc2C2CCCCC2)CC1 | 3 µM | 11.3 µM | 2.6 µM | 13 µM | 
COc1ccc(-c2c(C3=NCCCN3)nnn2-c2ccc([N+](=O)[O-])cc2)cc1 |  |  |  |  | TGI (DLD-1 colon): > 100 µM; TGI (DMS 273 small cell lung): > 100 µM; TGI (KM20L2 colon): > 100 µM; TGI (SNB-78 CNS): > 100 µM
CN1c2ccccc2SC2C(c3ccccc3)=NOC21 (stereo not drawn) |  | 68.4 µM |  | 71 µM | TGI (MDA-N): 52.8 µM
CC(C)[O-].CC(C)[O-].CN(CCN(C)Cc1cc(F)cc(F)c1[O-])Cc1cc(F)cc(F)c1[O-].[Ti+4] | 1.95 µM | 5.92 µM | 1.23 µM | 5.43 µM | 
CC(=Nc1ccc(S(N)(=O)=O)cc1)c1c(O)[nH]c2ccccc12 | > 25 µM | > 25 µM | > 25 µM | > 25 µM | 
[2H]c1nc(=Nc2cc(NC(=O)C=C)c(N(C)CCN(C)C)cc2OC)[nH]c(-c2cn(C([2H])([2H])[2H])c3ccccc23)c1[2H] | 1.52 µM | 3.25 µM | 1.61 µM | 3.5 µM | 
COc1ccc(Nc2nccc(N3CCN(c4c5ccc(Cl)cc5nc5ccc(OC)cc45)CC3)n2)cc1 | 14.4 µM | > 100 µM |  |  | 
Cc1ccc(NC(=O)/C(Cc2nc3ccc([N+](=O)[O-])cc3[nH]c2=O)=N\NC(=O)C[n+]2ccccc2)c(C)c1 |  | > 100 µM |  | > 100 µM | TGI (MDA-N): > 100 µM
O=C1/C(=C/c2ccc([N+](=O)[O-])cc2)COc2ccc(O)cc21 | 18.5 µM | 50.4 µM | 2.58 µM | 7.27 µM | 
C=CC1=C(C)C2=NC1=CC1=NC(=CC3=C(C)C4=C(O)[C@H](C(=O)OC)C(=C5NC(=C2)[C@@H](C)[C@@H]5CCC(=O)O)C4=N3)C(CC)=C1C |  | > 20.2 µM |  | > 41.1 µM | TGI (MDA-N): > 100 µM
CCNCCNc1cc(-c2ccc(C#N)cc2)c(C#N)c2nc3ccccc3n12 | 1.9 µM | 4.91 µM | 7.41 µM | 20.7 µM | 
COc1ccc(F)c(F)c1C(=O)c1cnc(NC2CCN(S(C)(=O)=O)CC2)nc1N | 1.52 µM and 1.02 µM | 5.86 µM and 5.52 µM | 0.385 µM and 0.411 µM | 5.44 µM and 5.92 µM | 
Cc1ccc(-n2nc(C(C)(C)C)cc2NC(=O)NCc2cc(F)ccc2Oc2ccc3c(cnn3CCO)c2)cc1 | > 10 µM and 4.68 µM | > 96.1 µM | > 10 µM and 5.28 µM | > 100 µM | 
COc1cc2nc(-c3ccc(C(F)(F)F)cc3)cc(OCCCN3CCCC3)c2cc1OC | 0.917 µM | 4.95 µM | 1.14 µM | 9.79 µM | 
CCCCCCCCCCCCCC[n+]1cccc(C(N)=O)c1 |  |  | 0.598 µM | 2.94 µM | 
CC1(C)CC(=O)C(CC2C(=O)c3ccccc3C2=O)C(=O)C1 |  |  |  |  | TGI (DLD-1 colon): > 100 µM; TGI (DMS 273 small cell lung): > 100 µM; TGI (KM20L2 colon): > 100 µM; TGI (SNB-78 CNS): > 100 µM
N#CC(C#N)=c1c2nsnc2c(=C(C#N)C#N)c2nsnc12 |  |  |  |  | TGI (DLD-1 colon): 4.39 µM; TGI (DMS 273 small cell lung): 3.24 µM; TGI (KM20L2 colon): 3.26 µM; TGI (SNB-78 CNS): 3.28 µM
CCOC(=O)c1c(SCCN2CCOCC2)n(-c2ccccc2)c(=S)n(-c2ccccc2)c1=O |  | > 100 µM |  |  | TGI (MDA-N): > 100 µM
Cc1cccc(C)c1N1C(=O)C(=O)C(c2nc3ccccc3s2)C(=Nc2cccc3c(=O)[nH][nH]c(=O)c23)C1=O (stereo not drawn) |  |  |  |  | TGI (DLD-1 colon): > 100 µM; TGI (DMS 273 small cell lung): > 100 µM; TGI (KM20L2 colon): > 100 µM; TGI (SNB-78 CNS): > 100 µM
CC(=O)[CH-]C(=O)c1ccccc1.CC(=O)[CH-]C(=O)c1ccccc1.CC1(C)OCC(C2OC3OC(C)(C)OC3C2[O-])O1.CC[O-].[Ti+4] (stereo not drawn) |  |  |  |  | GI50 (DLD-1 colon): 9.78 µM; TGI (DLD-1 colon): 24.7 µM; GI50 (KM20L2 colon): 21 µM; TGI (KM20L2 colon): 53.5 µM
Cc1cc2c(cc1Cl)S/C(=C/C(=O)O)C(Nc1cccc3nsnc13)=NS2(=O)=O |  | 1.38 µM | 41 µM | > 75.8 µM | 
O=C(NCCN1CCNCC1)c1ccc(Nc2nc3ccccc3c3occc23)cc1 | 2.72 µM | 18.2 µM | 11.1 µM | 29.8 µM | 

SMILES | GI50 (BT-549 breast) | TGI (BT-549 breast) | GI50 (PC-3 prostate) | TGI (PC-3 prostate) | other results
COc1cccc(COc2cc(-n3cnc4ccccc43)sc2C(N)=O)c1 | > 21 µM | > 25 µM | > 25 µM | > 25 µM | 
c1ccc2[nH]c(CNc3ccc(C4C[Se]N=N4)cc3)nc2c1 (stereo not drawn) |  |  |  |  | TGI (DLD-1 colon): > 100 µM; TGI (DMS 273 small cell lung): > 100 µM
COc1ccc(-c2cnoc2-c2cc(OC)c3c(c2)OCCO3)cc1 | 0.073 µM | 27.8 µM | 0.0377 µM | > 100 µM | 
COc1ccccc1NC(=O)/C(=C/c1ccccc1)C(C)=O |  |  |  |  | TGI (DLD-1 colon): > 100 µM; TGI (SNB-78 CNS): 44.6 µM; TGI (XF 498 CNS): 89.5 µM
O=C(Cl)C1=C(c2ccccc2)C1c1ccccc1 (stereo not drawn) |  | > 100 µM |  | > 100 µM | TGI (MDA-N): > 100 µM
Clc1ccc2c(c1)N(c1ncnc3ccc(-c4cnc5[nH]ncc5c4)cc13)CC2 | 0.676 µM | > 100 µM | 0.458 µM | > 100 µM | 
CCOc1ccc(Nc2c3ccccc3nc3ccccc23)cc1 | 0.478 µM and 0.556 µM | 9.51 µM and 10.2 µM | 0.392 µM and 0.748 µM | 7.29 µM and 5.61 µM | 
N.N.N.N.N.O=S(=O)([O-])S(=O)(=O)[O-].[Co+3] |  |  |  |  | GI50 (DLD-1 colon): > 100 µM; TGI (DLD-1 colon): > 100 µM; GI50 (DMS 273 small cell lung): > 100 µM; TGI (DMS 273 small cell lung): > 100 µM; GI50 (KM20L2 colon): > 100 µM; TGI (KM20L2 colon): > 100 µM; GI50 (SNB-78 CNS): > 100 µM; TGI (SNB-78 CNS): > 100 µM
Fc1ccc2nc(-c3cc(-c4ccc5c(c4)OCO5)n[nH]3)[nH]c2c1 | 1.48 µM | > 25.9 µM | 3.61 µM | > 82.3 µM | 
O=C1c2cccc3cccc(c23)C(=O)N1O |  | > 100 µM |  | > 100 µM | TGI (MDA-N): > 100 µM
O=[N+]([O-])c1ccc(-c2cc3c(Nc4ccc(Cl)c(C(F)(F)F)c4)ncnc3s2)cc1 | 2.91 µM | > 100 µM | 0.802 µM | > 100 µM | 
CC1c2ccccc2N=C2SC(=S)N3CCN=C3N21 (stereo not drawn) | > 100 µM | > 100 µM | > 100 µM | > 100 µM | 
O=C1/C(=C/c2cccc([N+](=O)[O-])c2)Sc2scc(-c3ccc([N+](=O)[O-])cc3)[n+]21 |  | 28.8 µM |  | > 100 µM | TGI (MDA-N): > 100 µM
O=C1c2ccccc2-c2c1c1c(NCCCO)nc3ccccc3c1n2Cc1ccccc1 | 21.1 µM | 43.7 µM |  |  | 
Cc1c(C)c(CC(=O)N2CC2)c(C)c(C)c1CC(=O)N1CC1 |  | 51.4 µM |  | 58.2 µM | TGI (DLD-1 colon): 56.5 µM; TGI (DMS 273 small cell lung): 13.2 µM; TGI (KM20L2 colon): 47.3 µM; TGI (MDA-N): 34.2 µM; TGI (SNB-78 CNS): 57.3 µM
O=C(O)c1ccccc1C(=O)c1ccc2c(c1)Cc1ccccc1-2 |  | > 100 µM |  | > 100 µM | TGI (MDA-N): > 100 µM
OCc1ccc(N2CCOCC2)cc1Cl | > 100 µM | > 100 µM | > 100 µM | > 100 µM | 
CC(C)Oc1ccc(C(=O)Cn2ccnc2)cc1-n1c(CN2CCN(C(=O)COc3ccc(Cl)cc3)CC2)nc2ccccc2c1=O | 13.5 µM | 30.9 µM | 9.44 µM | 37.2 µM | 
C/C1=C\CC[C@@](C)(O)[C@@H]2C[C@H](CC/C(C)=C/CC1)C1(CC1)C(=O)O2 | 25.5 µM | 69.7 µM | 27.8 µM | 69.4 µM | 
Nc1cc(-c2ccc(Cl)cc2)nn1-c1nnc(/C=C/c2ccco2)c(=O)[nH]1 | 5.62 µM | 55.5 µM | 8.95 µM | > 75 µM | 
CCn1c(-c2nonc2N)nc2ccncc21 | > 25 µM | > 25 µM | > 25 µM | > 25 µM | 
COC(=O)c1ccc2c(c1)C(=O)c1c-2n(CCCN=[N+]=[N-])c(=O)c2cc([N+](=O)[O-])ccc12 | 24.1 µM | 69.6 µM | > 100 µM | > 100 µM | 
CC1OC(c2ccc3c(c2O)C(=O)C2=C(C3=O)C3(O)C(=O)CC(C)(O)CC3(O)C=C2)CC(O)C1O (stereo not drawn) |  | 32.8 µM |  | 65.7 µM | TGI (MDA-N): 11.7 µM
COc1ccc(C2Oc3c(c(O)cc4c3[C@H](c3ccc(O)cc3O)[C@H](O)C(c3ccc(O)c(O)c3)O4)C[C@@H]2O)cc1O (stereo partly drawn) |  |  |  |  | TGI (DLD-1 colon): > 100 µM; TGI (DMS 273 small cell lung): > 100 µM; TGI (KM20L2 colon): > 100 µM; TGI (SNB-78 CNS): > 100 µM
COc1c(O)c(OC)c2oc(-c3ccc(O)cc3)c(OC)c(=O)c2c1O |  | > 100 µM |  | > 100 µM | TGI (MDA-N): > 100 µM
Cc1cc(C)n(C2=NS(=O)(=O)c3ccccc3N2C)n1 |  | > 100 µM |  | > 100 µM | TGI (MDA-N): > 100 µM
